The results in this text go back to PubChem BioAssay AID463199 (Broad Institute, 2010).

By AC50 is commonly meant the concentration giving half of the maximal activity seen.

Structures are written as SMILES. The source made the active and inactive calls.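 The calls were made as follows: active = AC50, the dose giving half-maximal effect, exceeds a fixed cutoff for a compound that rescues yeast growth under heat; inactive = the rest, inconclusive results apart.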

The subject of the assay is S. cerevisiae Burl-1 ts mutant growth, BacTiter-Glo, 38.5C 24 h. Nature of the assay: growth induction of Burl-1 ts yeast mutant, dose response, counter-screen for SUMOylation pathway inhibitor project, whole organism, S. cerevisiae, luminescence (AID 463199).
For `c1ccc(-c2csc(N3CCN(c4ccccn4)CC3)n2)cc1`, the AC50 is > 42 µM (inactive).
As for `O=C(c1ccccc1F)N1CCN=C1SCc1cccnc1`, the AC50 is > 42 µM (inactive).
As to `CC1CN(Cc2ccccc2)c2nc3c(c(=O)[nH]c(=O)n3C)n2C1` (stereo not given), the AC50 was > 42 µM (inactive).
Take `CN(C)S(=O)(=O)c1cccc(NC(=O)C(c2ccccc2)c2ccccc2)c1`: the AC50 is > 42 µM (inactive).
Take `CN(c1ccccc1)c1ccc(/C=C/[N+](=O)[O-])cc1`: the AC50 was > 42 µM (inactive).
As for `CCc1ccc2c(c1)C(c1ccc([N+](=O)[O-])cc1)=NNC(c1ccc(C)cc1)=N2`, the figure is > 42 µM (inactive).
On to `Cc1nc(-c2cccc(S(=O)(=O)N3CCOCC3)c2)cs1`, for which the AC50 is > 42 µM (inactive).
For `Oc1c(Cl)cc(Cl)c(Cl)c1Cc1c(O)c(Cl)cc(Cl)c1Cl`, the AC50 was > 42 µM (inactive).
Take `COc1ccc(N2C(=O)CSC2c2ccc([N+](=O)[O-])cc2)cc1` (stereo not given): the AC50 is > 42 µM (inactive).
On to `COc1ccc(-c2cn(-c3ccc(C)cc3)c(=O)n2CC(=O)Nc2ccc(OC)c(OC)c2)cc1`, for which the AC50 is > 42 µM (inactive).
Regarding `CCN1CCCC1CN(Cc1cc2ccc(C)cc2[nH]c1=O)C(=S)Nc1ccc(OC)cc1OC` (stereo not given), the AC50 is > 42 µM (inactive).
As for `COc1cc(/C=N/n2c(C3CCCCC3)n[nH]c2=S)cc(OC)c1O`, the AC50 was > 42 µM (inactive).
Turning to `COc1ccccc1CNC(=O)C1CCC(CNS(=O)(=O)c2ccc(C)cc2)CC1` (stereo not given), the AC50 was > 42 µM (inactive).
Turning to `Cc1nc(N/N=C\c2ccc3c(c2)OCO3)sc1C`, the AC50 was > 42 µM (inactive).
Take `O=C(O)C1CCCCC1C(=O)Nc1ccc(S(=O)(=O)N2CCCC2)cc1` (stereo not given): the AC50 is > 42 µM (inactive).
`COc1cc(C(=O)COC(=O)c2cc([N+](=O)[O-])ccc2N2CCOCC2)ccc1OC(F)F`: the AC50 is > 42 µM (inactive).
On to `C/C=C/C(=O)OCC(=O)Nc1nc2ccc(C)cc2s1`, for which the AC50 was > 42 µM (inactive).
In the case of `O=C(NCc1cccc(F)c1F)C1CCC(=O)N(C2CC2)C1` (stereo not given) it was > 42 µM (inactive).
For `COc1cccc(C2C(C(C)=O)=C(O)C(=O)N2CCc2c[nH]c3ccccc23)c1` (stereo not given), the AC50 is > 42 µM (inactive).
In the case of `C/C(=N\NC(=S)Nc1ccccc1)C1Cc2ccccc2C(=O)O1` (stereo not given) it was > 42 µM (inactive); in that of `COc1ccccc1CNc1ncnc2nc[nH]c12`, > 42 µM (inactive).
In the case of `Cc1nc2c(-c3ccc(F)cc3)cnn2c2c1CCC2` it was > 42 µM (inactive); in that of `Cc1[nH]c(C)c(S(=O)(=O)NCC(C)c2ccccc2)c1C(=O)N1CCCCC1` (stereo not given), > 42 µM (inactive); in that of `Cc1ccc(Sc2cnccc2C#N)cc1`, > 42 µM (inactive).
Take `COc1cc(S(=O)(=O)NC2CCCC2)c(OC)cc1C`: the AC50 is > 42 µM (inactive).
In the case of `O=C(Nc1nnc(-c2ccco2)o1)c1ccc(S(=O)(=O)N2CCCC2)cc1`, the AC50 was > 42 µM (inactive).
As for `CCc1nn(C)c(N)c1C`, the AC50 is > 42 µM (inactive).
Turning to `Cc1ccc(-n2nc3c(=O)n(CCCC(=O)NCc4cccc(F)c4)nc(C)c3c2C)cc1`, the AC50 is > 42 µM (inactive).
Take `Cc1ccccc1NC(=O)c1ccccc1NC(=O)c1ccco1`: the AC50 was > 42 µM (inactive).
In the case of `COc1ccc2nc(SCC(=O)N(C)CC(=O)Nc3ccc(F)cc3)[nH]c2c1` it was > 42 µM (inactive); in that of `Cc1cc2nc(CCl)cc(=O)n2[nH]1`, > 42 µM (inactive); in that of `O=c1cnc2cc([N+](=O)[O-])ccc2[nH]1`, > 42 µM (inactive).
For `O=C(O)C1C2CCC(O2)C1C(=O)NCCC1=CCCCC1` (stereo not given), the AC50 is 13.6 µM.
As for `CCC(C)[C@H](N)c1nnc(SCC(=O)Nc2cccc(Cl)c2)o1` (stereo not given in full), the figure is > 42 µM (inactive); as for `O=C(OCC(=O)N1CCN(Cc2ccccc2)CC1)c1ccc(Cl)cc1`, > 42 µM (inactive).
Take `Cc1ccc(C(=O)NC(NC(=O)c2ccc(C)cc2)C(Cl)Cl)cc1`: the AC50 is > 42 µM (inactive).
On to `Cc1ccccc1-n1ncc2c([N+](=O)[O-])cc([N+](=O)[O-])cc21`, for which the AC50 is > 42 µM (inactive).
In the case of `Cc1nn(C(C)(C)C)c(OC(=O)c2ccc3c(c2)OCO3)c1S(=O)(=O)c1ccccc1`, the AC50 is > 42 µM (inactive).
In the case of `C[C@@]12C(=O)Nc3ccc(Br)cc3C(=O)N1[C@H]1c3ccccc3OC[C@@H]1[C@@H]2c1ccccc1` it was > 42 µM (inactive).
As to `COCC(=O)n1nc(-c2ccccc2)nc1NCc1ccc(N(C)C)cc1`, the AC50 was > 42 µM (inactive).
`O=C(NC1CCCCC1)N(Cc1cc2cc3c(cc2[nH]c1=O)OCCO3)C1CCCCC1`: the AC50 is > 42 µM (inactive).
As to `Cc1ccc2c(c1)C(O)(CC(=O)c1cccnc1)C(=O)N2` (stereo not given), the AC50 was > 42 µM (inactive).
`COc1ccc2[nH]c(C(=O)N/N=C/c3ccccc3OC)cc2c1`: the AC50 is > 42 µM (inactive).
On to `CCc1c(C(=O)N2CCN(c3ccccc3F)CC2)[nH]c(C)c1C(C)=O`, for which the AC50 was > 42 µM (inactive).
For `Oc1ccc(Br)cc1/C=N/n1c(COc2ccccc2)n[nH]c1=S`, the AC50 was > 42 µM (inactive).
Turning to `Cc1ccc(-c2nc3c(=O)n(-c4ccccc4)c4c(c(=O)n(C)c(=O)n4C)c3o2)cc1`, the AC50 was > 42 µM (inactive).
In the case of `OC[C@@H](O)CCl`, the AC50 is > 42 µM (inactive).
`CN1C(=S)SC2CS(=O)(=O)CC21C` (stereo not given): the AC50 was > 21 µM (inactive).
Consider `O=S(=O)(NCc1cccc(C(F)(F)F)c1)NCc1ccccc1F`, for which the AC50 was > 42 µM (inactive).
Turning to `CCN(CC)C(=O)CSC(Nc1cccc(F)c1)=C(C#N)C#N`, the AC50 was > 42 µM (inactive).
Take `CC(SC#N)C(=O)C12CC3CC(CC(C3)C1)C2` (stereo not given): the AC50 is > 42 µM (inactive).
In the case of `Oc1c(Br)cc(Br)cc1C=Nc1cccnc1` it was > 42 µM (inactive).
Take `O=C(COC(=O)CSc1ccc([N+](=O)[O-])cc1)NC1CCCCCCC1`: the AC50 was > 42 µM (inactive).
As for `C=CCn1c(=N)c(C(=O)NCCCOC)cc2c(=O)n3ccccc3nc21`, the AC50 was > 42 µM (inactive).
Turning to `COc1ccc(-c2cc(C(F)(F)F)n3ncc(C(=O)O)c3n2)cc1OC`, the AC50 is > 42 µM (inactive).
`CC1CCCN(C(=O)Cc2ccc(F)cc2)C1` (stereo not given): the AC50 was > 42 µM (inactive).
For `CCC1CCCCN1C(=O)CSc1nnc(CNC(=O)c2ccco2)o1` (stereo not given), the AC50 was > 42 µM (inactive).
Consider `O=C1C2CCCN2C(=S)N1C1CCCCC1` (stereo not given), for which the AC50 is > 42 µM (inactive).
Turning to `O=C(O)COc1ccc(=O)n(-c2ccccc2)n1`, the AC50 was > 42 µM (inactive).
Turning to `COC(=O)c1cccc(NC(=O)CN(c2ccc3c(c2)OCO3)S(C)(=O)=O)c1C`, the AC50 is > 42 µM (inactive).
For `CS(=O)(=O)N(CC(=O)N1CCCC1)c1cccc(Cl)c1Cl`, the AC50 was > 42 µM (inactive).
As for `Cc1cc(-c2nnc3sc(C4CCCCC4)nn23)n[nH]1`, the AC50 is > 42 µM (inactive).
For the molecule `CCN(CC)CCNC(=O)CCn1c(=S)[nH]c2cc3c(cc2c1=O)OCO3`, the AC50 is > 42 µM (inactive).
In the case of `CN(C)c1ccc(NS(=O)(=O)c2cccc(Cl)c2)cc1`, the AC50 was > 42 µM (inactive).
With `COCCN(C(=O)c1csnn1)C(C(=O)NC1CCCCC1)c1ccccc1` (stereo not given), the AC50 is > 42 µM (inactive).
As to `CN(C)CCNC(=O)c1c(O)c2c([nH]c1=O)CCCC2`, the AC50 is > 42 µM (inactive).
For `CCn1c(C)c(C(C)=O)c(N2CCN(c3ccc(F)cc3)CC2)nc1=S`, the AC50 was > 42 µM (inactive).
In the case of `O=C(N/N=C/C(Br)=C/c1ccccc1)c1cccnc1` it was > 42 µM (inactive).
In the case of `CCOC(=O)C1ON2CCCCC2C1(O)C(F)(F)F` (stereo not given) it was > 42 µM (inactive).
In the case of `CCOC(=O)C1(c2ccccc2)CCN(CCC(=O)Nc2ccccc2OC)CC1` it was > 42 µM (inactive); in that of `COC(=O)CSc1ccc(S(=O)(=O)N2CCCCCC2)cc1[N+](=O)[O-]`, > 42 µM (inactive); in that of `Cc1sc(NC(=O)c2ccc(Br)s2)c(C(N)=O)c1C`, > 42 µM (inactive).
In the case of `CCc1ccc(NC(=O)N2CCC(c3ccccc3)C2)cc1` (stereo not given), the AC50 was > 42 µM (inactive).
In the case of `O=C(Nc1cccnc1Cl)c1cc2ccccc2o1` it was > 42 µM (inactive).
In the case of `CCCn1nc(C(=O)NNC(=O)c2cc(S(=O)(=O)NC)ccc2Br)c2ccccc2c1=O` it was > 42 µM (inactive); in that of `CCOc1ccc(N(CC(=O)NC2CCC(C)CC2)S(=O)(=O)c2c(C)noc2C)cc1` (stereo not given), > 42 µM (inactive); in that of `Cc1cccc(NC(=O)CCc2ccccc2)c1`, > 42 µM (inactive).
For the molecule `CCCN1C(=O)c2ccccc2NC1c1ccc(C)cc1` (stereo not given), the AC50 is > 42 µM (inactive).
With `CC1=NC2(CCCc3c2no[n+]3[O-])N(O)C1(C)C` (stereo not given), the AC50 was > 42 µM (inactive).
In the case of `O=C(Nc1ccncc1Cl)c1ccncc1` it was > 42 µM (inactive); in that of `CC(C)(CNC(=O)c1cccs1)CNC(=O)c1cccs1`, > 42 µM (inactive); in that of `COC(=O)c1cc2occc2n1Cc1nc(-c2ccccc2C)oc1C`, > 42 µM (inactive).
For `O=C(OCc1nc2ccsc2c(=O)[nH]1)c1ccco1`, the AC50 was > 42 µM (inactive).
As for `Cc1cc2c3c(c1)C1(SCC(=O)N1c1ccc(F)cc1)C(=O)N3C(C)(C)CC2C` (stereo not given), the figure is > 42 µM (inactive).
As for `Cc1cnc(NC(=O)CSc2nc3ccccc3s2)s1`, the figure is > 42 µM (inactive).
For `Cc1ccccc1-c1nc(CN2CCCC(C(=O)NCc3cccnc3)C2)c(C)o1` (stereo not given), the AC50 was > 42 µM (inactive).
As to `Cc1sc2nc(N)sc2c1C`, the AC50 was > 42 µM (inactive).
Consider `NC(=O)C1CCCN(C(=S)Nc2cccc3ccccc23)C1` (stereo not given), for which the AC50 is > 42 µM (inactive).
On to `Cn1c(=O)[nH]c(=O)c2c1nc(Sc1ccccc1)n2CCc1ccccc1`, for which the AC50 was > 42 µM (inactive).
For `CCc1ccccc1NC1c2ccccc2C(=O)N1c1cccnc1` (stereo not given), the AC50 is > 42 µM (inactive).
